# Tests used:
# Mdx mice = test: Grip strength test in mdx mice; type: in vivo, mouse; conditions: fluoxetine treated mdx mice, 6 weeks; 4 limbs
# Procedure: The grip strength test is a non-invasive method designed to evaluate mouse muscle force in vivo. A grip meter (Bio-GT3, BIOSEB), attached to a force transducer, measures the peak force generated. […] Five trials were conducted and, before statistical analysis, a mean value was calculated for each mouse using the tree median data. Results are expressed as the result of tree peak forces (in g), normalized to the body weight (in g).
# (§1) This was confirmed on soleus muscle (data not shown).
# satellite cells [1] = test: BrdU cell division of satellite cells during treatment; type: in vivo, mouse; conditions: BrdU during the entire per os treatment
# Excerpt: (a) Schematic representation of fluoxetine delivery and sacrifice time points. (b) Number of satellite cells per mm^2 on section. […] The arrows point to the satellite cells. […] (k-l) Representative image of a vessel (arrows) in the Matrigel plug detected by HE staining in placebo (k) or fluoxetine (l) treated mice. (m) Vessel length 4 days post-plating of Cytodex® beads covered with HUVEC. (n) Representative image of a Cytodex® bead 4 days-post plating in presence of placebo plasma. […] Using immunostainings and FACS cell sorting in Figures (p) to (v): (p) Number of Pax7GFP expressing cells per digested TA (expressed as an absolute number) counted by FACS. (q) Representative FACS profile of digested TA of TgPax7nGFP mouse. […] TA muscle was digested and cells were isolated by FACS, spined on a slide and immuno-stained against BrdU. (s) Percentage of BrdU+ cells in Tg:Pax7nGFP mice (n=3 per time point). […] Data are represented as mean±s.d. *P<0.05; **P<0.01; ***P<0.001. Scale bar represents 100 μm. For Figures (p) to (v): n=7 mice used per condition, except for BrdU experiments n=3 per time point. Data are represented as mean±s.d. **P<0.01. Scale bar represents 100 μm.
# cytokines [2] = test: Plasmatic cytokine levels by Luminex after notexin injury; type: in vivo, mouse; conditions: injured with fluoxetine treatment
# Excerpt: Snap frozen plasma samples (n=6 per condition) were thawed out, and supernatant was processed for Luminex® multiple cytokine and chemokine analysis (Bio-Plex® Pro™ Mouse Cytokine Standard 23-Plex, Group I and Standard 9-Plex, Group II). Normalization was done by sample weight of frozen muscle.
# cytokines [3] = test: Plasmatic cytokine levels by Luminex in treated mice; parameters: species or system mouse; conditions: fluoxetine 6 weeks in vivo; vs placebo
# Excerpt: Snap frozen plasma samples (n=6 per condition) were thawed out, and supernatant was processed for Luminex® multiple cytokine and chemokine analysis (Bio-Plex® Pro™ Mouse Cytokine Standard 23-Plex, Group I and Standard 9-Plex, Group II). Normalization was done by sample weight of frozen muscle. […]
# [4] = tested on: extensor digitorum longus (edl) fibers; test: Tension of isolated muscle fibers of mdx mice; type: in vivo, mouse; conditions: fluoxetine treated mdx mice
# Procedure: Small bundles of two to five fibers were manually isolated from the muscles as previously described. Chemical skinning was carried out using Triton X-100. Skinned fibers were mounted in the Displacement Measuring System KD 2300 (model 0.5 SU, Kaman Instrumentation, Colorado Springs, Colo., USA). To perform force measurements, skinned fiber preparations were incubated for 1 h in relaxing solution (pCa 9.0, low calcium content) containing 1% Triton X-100 (v/v) to solubilize the sarcolemma and the sarcoplasmic reticulum membranes, and were subsequently washed several times in relaxing solution without detergent. Fibres were adjusted to slack length and then stretched progressively until the tension developed became maximal. Isometric tension was recorded continuously using a chart recorder (model 1200, Linear, Reno, Nev., USA). The tension obtained was normalized to fibre cross-sectional area.
# as §1
# CD31 expressing cells = test: Ex vivo Matrigel angiogenesis assay (subcutaneous plugs); type: in vivo, mouse; conditions: C57Bl/6 treated P.O for 6 weeks
# Excerpt: To further confirm the above results, an ex vivo Matrigel angiogenesis assay was used. To do so, a cold Matrigel was introduced subcutaneously, which solidifies and allows the penetration by host cells and the formation of new blood vessels in C57Bl/6 treated P.O for 6 weeks.
# satellite cells [5] = test: Satellite cell (SC) number in tibialis anterior of treated mice (histological count or FACS cytometry); type: in vivo, mouse; conditions: GR127935 in osmotic pump together with vortioxetine I.P 12 days; Tg:Pax7nGFP mice
# Procedure: For satellite cell counting, only the tibialis anterior muscle was dissected and digested as described earlier, and the totality of the tube was analysed to assess the number of satellite cells per muscle. FACS analysis was done using a FACSasia (Beckman). All analyses and quantitation were performed using Summit v4.3 software from DakoCytomation and FloJo software. […]
# In order to count the number of satellite cells, the tibialis anterior (TA) of Tg:Pax7nGFP mice were digested and analysed by FACS in placebo and vortioxetine (12 days, 20 mg/Kg) treated mice. […] After 3 weeks of vortioxetine treatment, the number of satellite cells was even higher (9351 satellite cells±706, p=0.0079) but no statistically significant differences were found between 12 days and 3 weeks of treatment (p=0.15).
Structure (SMILES),Total muscle force increase (Mdx mice) [%],SC population dividing (BrdU) (satellite cells [1]) [%],IL-6 level after injury (cytokines [2]) [pg/µL],"Levels of IL-1a, IL-1b, IL-2 and eotaxin (cytokines [3])",Levels of IL-4 and IL-13 (cytokines [3]),Force increase of isolated single fibers of extensor digitorum longus (edl) [4] [%],Number of CD31 expressing cells in Matrigel plugs (CD31 expressing cells) [CD31+ cells per mm^2],Number of SC (satellite cells [5]) [SC per TA]
CNCCC(Oc1ccc(C(F)(F)F)cc1)c1ccccc1 (centres unmarked) [fluoxetine],56,90,2459 ± 920,downregulated,upregulated,45,72.9±22.6,–
COc1ccc(NC(=O)c2ccc(-c3ccc(-c4noc(C)n4)cc3C)cc2)cc1N1CCN(C)CC1 [GR127935],–,–,–,–,–,–,–,5540±411
